Measurements as given in patent publication US12180207B2 (ARRAY BIOPHARMA INC., priority 2018, dated 2024).

What was measured:
[1] = target: FGFR1 (SEQ ID NO: 1, amino acids 458-765) (Homo sapiens (Human), UniProt P11362); test: LC/MS FGFR1 kobs assay (covalent protein modification); format: binding; conditions: 500 nM FGFR1, 3 μM compound
Method in brief: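 Covalent labeling of FGFR1 kinase domain (aa 458-765) tracked over time by intact-protein LC/MS after formic acid quench. kobs derived by fitting DMSO-normalized percent unmodified FGFR1 to an exponential decay model.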

[2] = target: phosphorylated FGFR3 (SEQ ID NO: 5, amino acids 449 to 759) (Homo sapiens (Human), UniProt P22607); test: FGFR enzyme binding assay (HTRF tracer displacement), FGFR3; conditions: 5 nM phosphorylated FGFR3, average of multiple determinations if made
Method in brief: (§1)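 Kinase and tracer were incubated with compound for 60 minutes at 22° C. Tracer displacement was then measured by HTRF, and results were expressed as POC with 1 μM control inhibitor defining full displacement.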

[3] = target: HEK-293 cells transfected with dox-inducible human wild type FGFR3 (Homo sapiens (Human), UniProt P22607); test: FGFR3 pERK cell assay; format: cell-based; conditions: HEK-293 dox-inducible FGFR3, 1 hour compound, 100 ng/ml FGF-acidic; maximum concentration 5 μM
Method in brief: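 Doxycycline-induced cells preincubated 1 h at 37 °C with compound (1:3 dilutions, top 5 μM final), then stimulated 5 min with 100 ng/ml FGF-acidic. Lysate phospho-ERK1/2 measured by MSD sandwich assay; IC50 at 50 POC from 4-parameter fit, normalised to no-compound and control-compound wells.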

[4] = target: FGFR3 (SEQ ID NO: 5, amino acids 449-759) (Homo sapiens (Human), UniProt P22607); test: LC/MS FGFR3 kobs assay (covalent protein modification); format: binding; conditions: 500 nM FGFR3, 3 μM compound
Method in brief: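 Each time-point sample was quenched in 0.4% formic acid and analyzed by Q-TOF LC/MS. Deconvoluted signals gave percent modified and unmodified protein, normalized to the DMSO control, and the decay of unmodified protein yielded kobs.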

[5] = target: dephosphorylated FGFR1 (SEQ ID NO: 1, amino acids 458 to 765) (Homo sapiens (Human), UniProt P11362); test: FGFR enzyme binding assay (HTRF tracer displacement), FGFR1; conditions: 5 nM dephosphorylated FGFR1, average of multiple determinations if made
Method in brief: as §1

[6] = target: HEK-293 cells transfected with dox-inducible human wild type FGFR1 (Homo sapiens (Human), UniProt P11362); test: FGFR1 pERK cell assay; format: cell-based; conditions: HEK-293 dox-inducible FGFR1, 1 hour compound, 100 ng/ml FGF-acidic; maximum concentration 5 μM
Method in brief: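 In HEK-293 cells with dox-induced human wild-type FGFR1, compounds (1:3 dilutions, top 5 μM final) were applied 1 h at 37°C before 5 min stimulation with 100 ng/ml FGF-acidic. Phospho-ERK1/2 measured by MSD sandwich immunoassay; IC50 from 4-parameter fit of POC versus vehicle and control compound.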

Sequence of HEK-293 cells transfected with dox-inducible human wild type FGFR1 (P11362 22-822): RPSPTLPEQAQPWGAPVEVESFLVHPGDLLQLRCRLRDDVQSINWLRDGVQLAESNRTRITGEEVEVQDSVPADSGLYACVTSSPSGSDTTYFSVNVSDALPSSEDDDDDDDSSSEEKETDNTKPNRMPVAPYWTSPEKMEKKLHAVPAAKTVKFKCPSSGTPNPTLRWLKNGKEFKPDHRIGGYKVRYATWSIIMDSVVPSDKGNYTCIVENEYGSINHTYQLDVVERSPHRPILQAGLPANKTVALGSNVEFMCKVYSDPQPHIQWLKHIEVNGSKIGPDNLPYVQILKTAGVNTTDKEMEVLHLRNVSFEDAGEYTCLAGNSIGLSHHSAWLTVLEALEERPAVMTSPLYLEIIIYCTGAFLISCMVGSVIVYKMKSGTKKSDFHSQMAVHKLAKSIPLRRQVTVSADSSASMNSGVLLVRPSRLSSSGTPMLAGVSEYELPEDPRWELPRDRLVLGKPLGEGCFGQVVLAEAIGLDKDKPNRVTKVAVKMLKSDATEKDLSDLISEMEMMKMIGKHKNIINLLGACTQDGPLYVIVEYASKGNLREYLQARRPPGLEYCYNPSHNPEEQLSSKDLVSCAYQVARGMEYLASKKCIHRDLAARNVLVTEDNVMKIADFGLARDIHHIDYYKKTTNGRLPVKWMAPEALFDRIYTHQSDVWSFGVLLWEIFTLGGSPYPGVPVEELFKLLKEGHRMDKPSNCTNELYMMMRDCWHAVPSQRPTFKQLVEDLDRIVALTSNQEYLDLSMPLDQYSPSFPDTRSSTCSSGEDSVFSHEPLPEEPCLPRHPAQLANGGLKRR
Sequence of phosphorylated FGFR3 (SEQ ID NO: 5, amino acids 449 to 759) (P22607 449-759): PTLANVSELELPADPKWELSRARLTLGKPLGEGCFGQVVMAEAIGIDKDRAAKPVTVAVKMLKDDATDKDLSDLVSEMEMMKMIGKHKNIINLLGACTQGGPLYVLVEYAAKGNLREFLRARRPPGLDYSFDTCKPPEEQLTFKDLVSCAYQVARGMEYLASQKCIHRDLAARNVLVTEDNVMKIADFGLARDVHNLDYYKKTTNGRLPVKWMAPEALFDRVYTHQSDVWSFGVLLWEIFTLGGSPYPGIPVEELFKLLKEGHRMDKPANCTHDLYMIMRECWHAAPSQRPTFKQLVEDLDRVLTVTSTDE
Sequence of FGFR3 (SEQ ID NO: 5, amino acids 449-759) (P22607 449-759): as above
Sequence of HEK-293 cells transfected with dox-inducible human wild type FGFR3 (P22607 23-806): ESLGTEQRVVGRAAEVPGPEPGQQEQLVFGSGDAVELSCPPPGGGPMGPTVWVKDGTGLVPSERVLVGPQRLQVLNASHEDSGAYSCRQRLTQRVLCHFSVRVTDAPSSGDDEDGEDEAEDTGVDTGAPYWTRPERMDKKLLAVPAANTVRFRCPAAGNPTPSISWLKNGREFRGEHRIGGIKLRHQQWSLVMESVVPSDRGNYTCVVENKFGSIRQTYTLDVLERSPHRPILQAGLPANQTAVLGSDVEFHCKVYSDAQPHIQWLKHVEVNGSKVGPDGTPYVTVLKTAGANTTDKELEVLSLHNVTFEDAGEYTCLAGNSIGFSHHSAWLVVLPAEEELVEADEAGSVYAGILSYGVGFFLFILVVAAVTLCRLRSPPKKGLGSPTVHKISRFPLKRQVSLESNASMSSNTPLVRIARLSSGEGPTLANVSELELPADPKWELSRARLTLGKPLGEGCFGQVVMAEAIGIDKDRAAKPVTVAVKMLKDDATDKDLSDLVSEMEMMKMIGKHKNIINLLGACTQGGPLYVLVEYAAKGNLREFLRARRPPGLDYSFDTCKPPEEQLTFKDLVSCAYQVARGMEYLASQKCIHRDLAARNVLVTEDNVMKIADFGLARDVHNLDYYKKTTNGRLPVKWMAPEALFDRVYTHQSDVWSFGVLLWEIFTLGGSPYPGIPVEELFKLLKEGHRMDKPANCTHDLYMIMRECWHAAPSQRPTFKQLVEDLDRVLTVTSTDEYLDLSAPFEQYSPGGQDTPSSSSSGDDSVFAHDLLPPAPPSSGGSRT
Sequence of FGFR1 (SEQ ID NO: 1, amino acids 458-765) (P11362 458-765): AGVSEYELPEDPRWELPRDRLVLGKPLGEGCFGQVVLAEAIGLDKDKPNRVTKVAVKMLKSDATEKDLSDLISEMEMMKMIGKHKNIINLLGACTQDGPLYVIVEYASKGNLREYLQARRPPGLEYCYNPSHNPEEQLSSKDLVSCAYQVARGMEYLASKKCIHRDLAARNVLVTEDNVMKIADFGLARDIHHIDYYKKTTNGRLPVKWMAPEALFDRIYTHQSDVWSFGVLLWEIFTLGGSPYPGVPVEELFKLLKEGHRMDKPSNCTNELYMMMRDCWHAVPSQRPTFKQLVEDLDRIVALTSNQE
Sequence of dephosphorylated FGFR1 (SEQ ID NO: 1, amino acids 458 to 765) (P11362 458-765): as above

Row | FGFR1 Enz kobs [1] [min⁻¹] | IC50 [2] [nM] | IC50 [3] [nM] | FGFR3 Enz kobs [4] [min⁻¹] | IC50 [5] [nM] | IC50 [6] [nM] | Structure (SMILES)
1 | 0.00202 | 2 | 348 | 0.01781 | 40 | 3630 | COc1cc(-c2cnn(C3CCN(C(=O)C4CN(C(=O)/C=C/CN5CC[C@H](F)C5)C4)CC3)c2)cn2ncc(C#N)c12 [Example 182, (S,E)-6-(1-(1-(1-(4-(3-fluoropyrrolidin-1-yl)but-2-enoyl)azetidine-3-carbonyl)piperidin-4-yl)-1H-pyrazol-4-yl)-4-methoxypyrazolo[1,5-a]pyridine-3-carbonitrile]
2 | 0.00259 | 4 | 592 | 0.02414 | 46 | 4570 | COc1cc(-c2cnn(C3CCN(C(=O)C4CN(C(=O)/C=C/CN5CC[C@@H](F)C5)C4)CC3)c2)cn2ncc(C#N)c12 [Example 183, (R,E)-6-(1-(1-(1-(4-(3-fluoropyrrolidin-1-yl)but-2-enoyl)azetidine-3-carbonyl)piperidin-4-yl)-1H-pyrazol-4-yl)-4-methoxypyrazolo[1,5-a]pyridine-3-carbonitrile]
3 | 0.00043 | 6 | 2830 | 0.00475 | 52 | ≥ 5000 | COc1cc(-c2cnn(C3CCN(C(=O)C4CN(C(=O)/C=C/CN5CCOCC5)C4)CC3)c2)cn2ncc(C#N)c12 [Example 184, (E)-4-methoxy-6-(1-(1-(1-(4-morpholinobut-2-enoyl)azetidine-3-carbonyl)piperidin-4-yl)-1H-pyrazol-4-yl)pyrazolo[1,5-a]pyridine-3-carbonitrile]
4 | 0.01483 | 2 | 6 | 0.08793 | 14 | 35 | C=CS(=O)(=O)N1CCC(C(=O)N2CCC(n3cc(-c4cc(OC)c5c(C#N)cnn5c4)cn3)CC2)CC1 [Example 186, 4-methoxy-6-(1-(1-(1-(vinylsulfonyl)piperi-dine-4-carbonyl)piperidin-4-yl)-1H-pyrazol-4-yl)pyrazolo[1,5-a]pyridine-3-carbonitrile]
